# Experimental data taken from patent US11786507B2, “Methods of treating HIV-associated neurological disorders (HAND)” (priority 2020, dated 2023).
# Tests used:
# striatal neurons = settings: cited from earlier work
# [1] = tested on: cerebellar granule neurons; settings: cited from earlier work
# [2] = tested on: hippocampal slice cultures; settings: cited from earlier work
# iTat mice [3] = assay: Open Field Test (OPT), locomotor activity; type: in vivo, mouse
# Excerpt: (§1) Doxycycline (Dox)-inducible and astrocyte-specific HIV-1 Tat-transgenic mice (iTat) were generated as previously described.^38 Wild-type (Wt, C57BL/6) and α7 nAChR knockout mice (α7^−/−, B6.129S7-Chrna^7tm1Ba/J) were purchased from the Jackson Laboratory (Bar Harbor, ME). All the animal procedures were approved by the Institutional Animal Care and Use Committee. Mice were housed with a 12-hour light and 12-hour dark photoperiod and provided water and food ad libitum. α7^−/− iTat mice were generated by cross breeding iTat mice with α7^−/− mice. α7^−/− genotyping was slightly modified with the JumpStart™ Taq DNA Polymerase-based PCR (JumpStart™ Taq DNA Polymerase, Sigma, catalog #D9307). […] Mice of 10-14 weeks old with body weights of 20-35 grams were fed with Dox-containing diet (0.625 g/kg, Envigo, catalog #TD.01306) as stated.
# (§2) Open Field Test (OPT) and Morris Water Maze (MWZ) were performed sequentially using a computerized video tracking system (Anymaze, Stoelting) to determine the spontaneous locomotor activity and spatial learning and memory, respectively. For OPT, each mouse was allowed to move freely around a clear acrylic chamber (40.5×40.5×30.5 cm) for 10 minutes. Travel distance and maximum speed was determined by the AnyMaze software. For MWZ, a circle pool (1.2 m diameter) surrounded with a curtain was divided into four equal quadrants, and four signs with different shape were fixed onto the middle of each quadrant wall above the opaque water (24±1° C.). A hidden platform (1.5 cm below water surface) was put into a certain quadrant. Two stages consisting of 5-day training and probe test were carried out. In the training stage, four trials with a 15-20 minute interval were conducted in the every-day training, and for each trial mice were allowed to freely seek the platform within 90 seconds right after they were randomly put into one quadrant facing to the pool wall. If the mice found the platform within 90 seconds, 10 seconds would be added to allow them staying on the platform for memorizing, however, if failed, they would be directed toward the platform and allowed to stay on it for 15 seconds. Mice that were immobile or floating and unable to find the platform during the training stages were excluded from the experiments. Probe test was carried out on the next day following the 5-day training stage with a 60 seconds trial, and the platform was removed to prevent the mice from climbing onto it during the testing. One day after the behavioral tests, mice were euthanized and the brains were harvested.
# (§3) To determine if α7 nAChR is involved in HAND, iTat mice were fed with Dox-containing food pellets for 7 days, injected s.c. with a well-studied and highly specific positive allosteric modulator (PAM) PNU-120596 of α7 nAChR^73,74 for 5 days, and then subjected to open field test (OPT) for locomotor activity on day 14, and Morris Water Maze test (MWZ) for learning and spatial memory on day 15-20, and euthanized to harvest tissues on day 21 (FIG. 1A). Dox-containing food pellet feeding and PAM injection continued during the next 7 days of behavioral tests. To minimize the effects of injection on behavioral tests, PAM was injected 5 hours after each behavioral test.
# iTat mice [4] = assay: Morris Water Maze (MWZ), training stage and probe test; type: in vivo, mouse
# Excerpt: as §1, §2
# as §3, with “[…],” for “injected s.c. with a well-studied and highly specific positive allosteric modulator (PAM) PNU-120596 of α7 nAChR^73,74 for 5 days,”
# iTat mice [5] = assay: Western blotting of SYP, PSD-95, GFAP, Iba-1 in cortex and hippocampus; type: in vivo, mouse; settings: CORT and HIP, SB239063-treated iTat vs Wt
# Excerpt: as §1
# A RIPA buffer (50 mM Tris.HCl, pH 8.0, 280 mM NaCl, 0.5% NP-40, 1% C24H39NaO4, 0.2 mM EDTA, 2 mM EGTA and 10% glycerol) supplemented with protease inhibitors (Millipore-Sigma, catalog #S8830) and phosphatase inhibitors (Millipore-Sigma, catalog #4906845001) was used to lyse the brain tissues and cultured cells with brief sonication on ice. Protein concentrations of the lysates were determined using a Bio-Rad DC protein assay kit (Bio-Rad, catalog #5000111). Lysates were denatured in the SDS-PAGE loading buffer at 100° C. for 10 min, then electrophoretically separated by 8-15% SDS-PAGE, blotted onto 0.45 μm polyvinylidene fluoride membrane (GE Healthcare Life Sciences, catalog #10600023), and probed using appropriate antibodies against PSD-95 (Abcam, catalog #ab18258, and 1:2000 dilution), SYP (Abcam, catalog #ab8049, and 1:1000 dilution), Iba-1 (Wako, catalog #016-20001, and 1:500 dilution) and GFAP (DAKO, catalog #z330s, and 1:2000 dilution), p-p38 (Santa Cruz, catalog #sc-166182, and 1:1000 dilution), p38 (Santa cruz, catalog #sc-535, and 1:1000 dilution), p-JNK (Santa cruz, catalog #sc-6254, and 1:1000 dilution), JNK (Santa cruz, catalog #sc-571, and 1:1000 dilution), p-ERK (Santa cruz, catalog #sc-7383, and 1:1000 dilution), and ERK (Santa cruz, catalog #sc-514302, and 1:1000 dilution), α7 nAChR (Alomone, catalog #ANC-007, and 1:1000 dilution) and β-actin (Sigma-Aldrich, catalog #A1978, and 1:2000 dilution). A Bio-Rad ChemicDoc imaging system (Bio-Rad) and Image J were used for image capturing and analysis, respectively. […]
# [6] = iTat vs Wt mice, SB239063 15 mg/kg/day i.p.
compound,measurement,setting,value
C[S+]([O-])c1ccc(-c2nc(-c3ccc(F)cc3)c(-c3ccncc3)[nH]2)cc1 (stereo not drawn) [SB203580],Tat-induced neurite losses and cell death,striatal neurons,failed to block
same,Tat-induced apoptosis,[1],prevented
Oc1ccc(-c2nc(-c3ccc(F)cc3)c(-c3ccncc3)[nH]2)cc1 [SB202190],Tat-induced inflammation and oxidation,[2],decreased
COc1nccc(-c2c(-c3ccc(F)cc3)ncn2C2CCC(O)CC2)n1 (stereo not drawn) [SB239063],"OPT travel distance and maximum speed, Wt vs iTat mice","iTat mice [3]; SB239063 15 mg/kg/day i.p., male and female",no significant differences in travel distance and maximum speed between Wt and iTat mice
same,"OPT performance, female vs male mice",iTat mice [3]; Wt and iTat mice in response to SB239063,both female Wt and female iTat mice performed better in the OPT than male Wt and male iTat mice
same,"OPT travel distance, SB239063-treated vs vehicle-treated","iTat mice [3]; female Wt and iTat mice, 15 mg/kg/day i.p.",difference of travel distance between SB239063-treated and vehicle-treated female mice
same,"MWZ probe test platform entries, time at/distance to target quadrant, time at/distance to platform",iTat mice [4]; SB239063-treated female iTat mice vs vehicle-treated female Wt and iTat and SB239063-treated female Wt,"fewer platform entries, shorter time at target quadrant, distance to target quadrant, time at platform, and distance to platform"
same,"Cognition, learning and memory effects",iTat mice [4]; Wt mice treated with SB239063,Some beneficial effects
same,MWZ probe test latency to platform,"iTat mice [4]; female iTat mice, SB239063 vs vehicle",longer latency to platform than vehicle-treated female iTat mice
same,MWZ training stage cumulative distance,iTat mice [4]; [6],difference between SB239063-treated male iTat and male Wt mice on day 2 and 3 and female iTat and Wt mice on day 4
same,MWZ training stage escape latency,iTat mice [4]; [6],"even longer escape latency than Wt mice, with differences on day 3 and 4 for male mice"
same,"MWZ probe test platform entries, distance to target quadrant, distance to platform","iTat mice [4]; male iTat vs male Wt mice, SB239063 15 mg/kg/day i.p.","fewer platform entries, shorter distance to target quadrant and distance to platform than Wt male mice"
same,"SYP, GFAP and Iba-1 expression",iTat mice [5]; female mice,"lower SYP, GFAP and Iba-1 with differences than SB239063-treated Wt mice"
same,PSD-95 expression,iTat mice [5]; male and female,lower PSD-95 than SB239063-treated Wt mice
same,SYP and GFAP expression,iTat mice [5]; male mice,no differences of SYN and GFAP (except HIP) from SB239063-treated Wt mice
